In the supplement of paper PMC10307832:

Experiments:
Assay in all cases: relative viability (nuclei count vs DMSO), 5 days (fraction); higher = more cells survive
A-427 = system: A-427
Method in brief: (§1)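 Lung cancer cell lines were seeded in 1536-well plates and dosed by pin tool the next day, with either a single drug or a fixed anchor-drug dose combined with five library-drug doses (not always all listed) spaced in √10 steps. Five days later, one step fixed the cells and stained their nuclei (final 0.05% Triton X-100, 1% formaldehyde, 1 ug/ml Hoechst), and nuclei were counted on 4× images. Relative viability is the nuclei count in treated wells divided by the count in vehicle wells, and each value is the median of duplicate plates.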

ChaGo-K-1 = system: ChaGo-K-1
Method in brief: as §1

EKVX = system: EKVX
Method in brief: as §1

H3255 = system: H3255
Method in brief: as §1

LK-2 = system: LK-2
Method in brief: as §1

NCI-H1355 = system: NCI-H1355
Method in brief: as §1

NCI-H1666 = system: NCI-H1666
Method in brief: as §1

NCI-H1755 = system: NCI-H1755
Method in brief: as §1

NCI-H1944 = system: NCI-H1944
Method in brief: as §1

NCI-H2085 = system: NCI-H2085
Method in brief: as §1

NCI-H2347 = system: NCI-H2347
Method in brief: as §1

NCI-H3122 = system: NCI-H3122
Method in brief: as §1

NCI-H322M = system: NCI-H322M
Method in brief: as §1

NCI-H358 = system: NCI-H358
Method in brief: as §1

NCI-H441 = system: NCI-H441
Method in brief: as §1

NCI-H460 = system: NCI-H460
Method in brief: as §1

NCI-H596 = system: NCI-H596
Method in brief: as §1

NCI-H650 = system: NCI-H650
Method in brief: as §1

NCI-H838 = system: NCI-H838
Method in brief: as §1

For `Cc1cnc(-c2cnc(NCCNc3ccc(C#N)cn3)nc2-c2ccc(Cl)cc2Cl)[nH]1` + NC(=O)Nc1cc(-c2cccc(F)c2)sc1C(=O)N[C@H]1CCCNC1 [AZD7762] (partner 0.2 µM), the relative viability (A-427; first compound 0.08 µM) was 0.838, the relative viability (A-427; first compound 0.253 µM) was 0.602 and the relative viability (A-427; first compound 0.8 µM) was 0.692. For the same compound, the relative viability (A-427; first compound 2.53 µM) was 0.714, the relative viability (ChaGo-K-1; first compound 0.08 µM) was 0.843 and the relative viability (ChaGo-K-1; first compound 0.253 µM) was 0.754. The relative viability (ChaGo-K-1; first compound 0.8 µM) was 0.82, the relative viability (ChaGo-K-1; first compound 2.53 µM) was 0.814 and the relative viability (EKVX; first compound 0.08 µM) was 0.731. The relative viability (EKVX; first compound 0.253 µM) was 0.698, the relative viability (EKVX; first compound 0.8 µM) was 0.588 and the relative viability (EKVX; first compound 2.53 µM) was 0.655. For the same compound, the relative viability (H3255; first compound 0.08 µM) was 0.996, the relative viability (H3255; first compound 0.253 µM) was 0.887 and the relative viability (H3255; first compound 0.8 µM) was 0.879. The relative viability (H3255; first compound 2.53 µM) was 0.888, the relative viability (LK-2; first compound 0.08 µM) was 0.436 and the relative viability (LK-2; first compound 0.253 µM) was 0.421. It also gave a relative viability (LK-2; first compound 2.53 µM) of 0.393, a relative viability (NCI-H1355; first compound 0.08 µM) of 0.831 and a relative viability (NCI-H1355; first compound 0.253 µM) of 0.624. It also gave a relative viability (NCI-H1355; first compound 0.8 µM) of 0.691, a relative viability (NCI-H1355; first compound 2.53 µM) of 0.577 and a relative viability (NCI-H1666; first compound 0.08 µM) of 0.852. The relative viability (NCI-H1666; first compound 0.253 µM) was 0.864, the relative viability (NCI-H1666; first compound 0.8 µM) was 0.838 and the relative viability (NCI-H1666; first compound 2.53 µM) was 0.78. It also gave a relative viability (NCI-H1755; first compound 0.08 µM) of 0.459, a relative viability (NCI-H1755; first compound 0.253 µM) of 0.445 and a relative viability (NCI-H1755; first compound 0.8 µM) of 0.404. It also gave a relative viability (NCI-H1755; first compound 2.53 µM) of 0.443, a relative viability (NCI-H1944; first compound 0.08 µM) of 0.668 and a relative viability (NCI-H1944; first compound 0.8 µM) of 0.488. It also gave a relative viability (NCI-H1944; first compound 2.53 µM) of 0.521, a relative viability (NCI-H2085; first compound 0.08 µM) of 1.02 and a relative viability (NCI-H2085; first compound 0.253 µM) of 0.77. It also gave a relative viability (NCI-H2085; first compound 0.8 µM) of 0.901, a relative viability (NCI-H2085; first compound 2.53 µM) of 1.05 and a relative viability (NCI-H2347; first compound 0.08 µM) of 0.873. It also gave a relative viability (NCI-H2347; first compound 0.253 µM) of 0.612, a relative viability (NCI-H2347; first compound 0.8 µM) of 0.689 and a relative viability (NCI-H2347; first compound 2.53 µM) of 0.79. It also gave a relative viability (NCI-H3122; first compound 0.08 µM) of 0.995, a relative viability (NCI-H3122; first compound 0.8 µM) of 1.03 and a relative viability (NCI-H3122; first compound 2.53 µM) of 0.98. It also gave a relative viability (NCI-H322M; first compound 0.08 µM) of 0.526, a relative viability (NCI-H322M; first compound 0.253 µM) of 0.546 and a relative viability (NCI-H322M; first compound 0.8 µM) of 0.566. For the same compound, the relative viability (NCI-H322M; first compound 2.53 µM) was 0.675, the relative viability (NCI-H358; first compound 0.08 µM) was 0.529 and the relative viability (NCI-H358; first compound 0.253 µM) was 0.5. It also gave a relative viability (NCI-H358; first compound 0.8 µM) of 0.478, a relative viability (NCI-H358; first compound 2.53 µM) of 0.47 and a relative viability (NCI-H441; first compound 0.08 µM) of 1.02. It also gave a relative viability (NCI-H441; first compound 0.8 µM) of 0.967, a relative viability (NCI-H441; first compound 2.53 µM) of 0.993 and a relative viability (NCI-H460; first compound 0.08 µM) of 0.579. It also gave a relative viability (NCI-H460; first compound 0.8 µM) of 0.557, a relative viability (NCI-H460; first compound 2.53 µM) of 0.541 and a relative viability (NCI-H596; first compound 0.08 µM) of 1.3. The relative viability (NCI-H596; first compound 0.253 µM) was 0.974, the relative viability (NCI-H596; first compound 0.8 µM) was 1.09 and the relative viability (NCI-H596; first compound 2.53 µM) was 1.01. For the same compound, the relative viability (NCI-H650; first compound 0.08 µM) was 0.979, the relative viability (NCI-H650; first compound 0.253 µM) was 0.872 and the relative viability (NCI-H650; first compound 0.8 µM) was 0.892. For the same compound, the relative viability (NCI-H650; first compound 2.53 µM) was 1.03, the relative viability (NCI-H838; first compound 0.08 µM) was 0.973 and the relative viability (NCI-H838; first compound 0.253 µM) was 0.919. The relative viability (NCI-H838; first compound 0.8 µM) was 0.941 and the relative viability (NCI-H838; first compound 2.53 µM) was 0.983.
